According to paper PMC4494750 (Journal of medicinal chemistry, 2011):
Counter-ions that a name gives are not always drawn.

Assays:
[1] = system: P. yoelii-Kenya; assay: In vivo antimalarial efficacy: P. yoelii murine patent infection; design: species or system P. yoelii in CF-1 mice; details: for weight loss or toxicity: 5 mg/kg/day by gavage
[2] = system: P. berghei; details: subcutaneous injection, mice; without cure or at doses resulting in more toxic deaths than cures; ref 7a, 7e, 7b, 16; cited from earlier work
[3] = system: P. cynomolgi; details: oral treatment, even at toxic doses; ref 7c; cited from earlier work
[4] = system: P. falciparum pansensitive D6; assay: In vitro antimalarial activity: P. falciparum growth inhibition; format: cell-based; details: Plasmodium falciparum, D6, 72 h, read-out: IC50 (nM) D6
[5] = 25 mg/kg/day by gavage, parasite-free for 28 days

Compound	weight loss or toxicity [1]	effect on survival [2]	other results
COC1=CC(c2ccc[nH]2)=N/C1=C\c1[nH]c(Cc2ccc(Cl)cc2)cc1Cc1ccc(Cl)cc1 [Compound 66]	without any evidence of weight loss or toxicity		weight loss or clinical overt toxicity ([1]; 25 mg/kg/day by gavage): without any evident weight loss or clinical overt toxicity
CCC1CCCCCCCCC2=N/C(=C\c3[nH]c(-c4ccc[nH]4)cc3OC)C1=C2 (stereo not shown) [Compound 3, metacycloprodiginine]		extend survival	parasite clearance ([1]; 100 mg/kg/day by gavage): complete; weight loss ([1]; 100 mg/kg/day by gavage): temporary weight loss; mice cured ([1]; 100 mg/kg/day by gavage, parasite-free for 28 days): three of four; parasitemia ([1]; initial proof-of-principle testing, 25 mg/kg/day by gavage, 54.1% in controls): 0.28%
CCCCCC1=C/C(=C/c2[nH]c(-c3ccc[nH]3)cc2OC)N=C1C [Compound 1, prodigiosin]		extend survival	antimalarial activity [3]: completely ineffective
CCCCCCc1cc(Cc2ccc(Cl)cc2)c(/C=C2\N=C(c3ccc[nH]3)C=C2OC)[nH]1 [Compound 58]	without any evidence of weight loss or toxicity		cures in treated group [1, 5]: one cure
CCCC[C@H]1CCCCCCc2[nH]c(/C=C3\N=CC(c4ccc[nH]4)=C3OC)cc21 [Compound 77, butylcycloheptylprodiginine]		extend survival	
CCCCCCCCc1cc(Cc2ccc(Cl)cc2)c(/C=C2\N=C(c3ccc[nH]3)C=C2OC)[nH]1 [Compound 60]	without any evidence of weight loss or toxicity		cures in treated group [1, 5]: one cure
CCCCCCCCCCCC1=N/C(=C\c2[nH]c(-c3ccc[nH]3)cc2OC)C=C1 [Compound 2, undecylprodiginine]		extend survival	
cyclononylprodiginine [Compound 78]		extend survival	
COC1=CC(c2ccc[nH]2)=N/C1=C\c1[nH]ccc1Cc1ccc(Cl)cc1 [Compound 41]	without any evidence of weight loss or toxicity		
CCCCCCCc1cc(/C=C2\N=C(c3ccc[nH]3)C=C2OC)[nH]c1C [Compound 76, heptylprodigiosin]		extend survival	
CCN(CC)CCCC(C)Nc1ccnc2cc(Cl)ccc12 (stereo not shown) [CQ, chloroquine]			IC50 [4]: 11 nM
CCCc1cc(CCC2CCCCC2)c(/C=C2\N=C(c3ccc[nH]3)C=C2OC)[nH]1 [Compound 49]	without any evidence of weight loss or toxicity		
CCCc1cc(Cc2ccc(Cl)cc2)c(/C=C2\N=C(c3ccc[nH]3)C=C2OC)[nH]1 [Compound 57]	without any evidence of weight loss or toxicity		
CCCCCCCCc1cc(CCC)c(/C=C2\N=C(c3ccc[nH]3)C=C2OC)[nH]1 [Compound 48, 4′-methoxy-5′-(5-octyl-3-propyl-1H-pyrrol-2-ylmethylene)-1H,5′H-[2,2′]bipyrrolyl, hydrochloride]	without any evidence of weight loss or toxicity		
